{"source": "patent US6384304B1", "about": "“Conditional sterility in wheat” (Plant Genetic Systems N.V., priority 1999, dated 2002)", "test_system": "Triticum aestivum plants", "conditions": "0.1% active ingredient, microdroplets on leaf blades, stage 32, outdoor; radioactivity measurements and autoradiography at different time points", "protocol": "Plant treatment: The application solution of the formulated test compound was applied in the form of microdroplets by syringe to the blades (adaxial surface) of the fuilly developed leaves. A volume of 20 μl each was applied to the 3rd or 4th leaf of the main shoot and of two tillers per plant (=a total of 60 μl application solution per plant.). Plants were kept under outdoor conditions and uptake and translocation of the test substance was analyzed at different stages.\nSampling of Leaf Tissue was Carried Out at the Following Time Points:\n1) 1 week after treatment\n2) 3 weeks after treatment\nProcessing of Collected Samples for quantitative Determinations:\nFor the sampling done at time points 1, 2 and 3, the treated leaf blades were cut off and the non-absorbed test compound was washed from the treated leaf blades by 2 consecutive short washes with water. Subsequently plants were dissected further, resulting in the following parts: […]\nRadioactivity was quantified in the different plant parts and in the washing solutions and was calculated as equivalents of the labeled compounds. […]\nFor the sampling time point 4, radioactivity is determined in the grains only and is calculated as equivalents of the labeled test compound. […]\nIn addition to the quantitative radioactivity measurements the distribution of radioactivity is determined by autoradiography in plants of the sampling time points 1 and 2.", "data": [{"smiles": "CC(=O)N[C@@H](CCP(C)(=O)[O-])C(=O)[O-].[Na+].[Na+]", "note": "[N-acetyl PPT, dinatrium L-2-acetamido-4-methylphosphinato-butyrate-[3^14C, 4^14C]]", "values": [{"measurement": "foliar uptake in wheat tissue", "result": "good"}, {"measurement": "translocation of the test substance in the plant", "result": "translocation through the phloem to the ears both in the main shoot and the tillers"}]}]}
